Data taken from ChEMBL document CHEMBL1201862, “PubChem BioAssay data set” (2004).
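Briefly, cells in 96-well plates were exposed to five compound concentrations for 48 h, and endpoints were estimated by linear interpolation. At the GI50, growth is halved.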 The source made the active and inactive calls. Cut-off read from the data, not from the text of the source: active = GI50 up to about 1.1 µM and inactive = higher.

Experiments:
Experiment in all cases: NCI-60 cell line screen, 48 h
PC-3 = system: PC-3
U-251 = system: U-251
OVCAR-3 = system: OVCAR-3
SNB-19 = system: SNB-19
A549 = system: A549
K562 = system: K562
SK-MEL-28 = system: SK-MEL-28
OVCAR-5 = system: OVCAR-5
NCI-H460 = system: NCI-H460
SR = system: SR
HL-60 = system: HL-60
DU-145 = system: DU-145
IGROV-1 = system: IGROV-1
MOLT-4 = system: MOLT-4
KM12 = system: KM12
SNB-75 = system: SNB-75
MDA-N = system: MDA-N
LOX IMVI = system: LOX IMVI
BT-549 = system: BT-549
NCI/ADR-RES = system: NCI/ADR-RES

Measured: GI50

C[C@]12CC[C@H](O)CC1=CC[C@@H]1C2CC[C@]2(C)Nc3c(cnn3-c3ccc(F)cc3)CC12 (stereo not given in full)
inactive: PC-3 14.1 µM | U-251 6.3 µM | OVCAR-3 48.5 µM | SNB-19 19.3 µM | A549 52.1 µM | K562 2.25 µM | SK-MEL-28 3.49 µM | OVCAR-5 > 100 µM | NCI-H460 3.51 µM | SR > 100 µM | HL-60 4.12 µM | DU-145 32 µM | IGROV-1 > 100 µM | MOLT-4 3.48 µM | KM12 29.4 µM | SNB-75 2.71 µM | MDA-N > 53.8 µM | LOX IMVI 3.2 µM | BT-549 14.4 µM | NCI/ADR-RES 21.5 µM

[N-]=[N+]=Nc1ccc2c(c1)Sc1ccccc1N2CCCCN1CCN(C(=O)CCNC(=O)Cc2ccc(C(=O)c3ccccc3)cc2)CC1
inactive: PC-3 3.1 µM | U-251 4.23 µM | OVCAR-3 4.5 µM | SNB-19 8.17 µM | A549 4.52 µM | K562 1.68 µM | SK-MEL-28 4.81 µM | OVCAR-5 6.53 µM | NCI-H460 3.72 µM | SR 2.08 µM | HL-60 2.54 µM | DU-145 4.93 µM | IGROV-1 6.1 µM | MOLT-4 1.54 µM | KM12 3.31 µM | SNB-75 5.21 µM | MDA-N 3.75 µM | LOX IMVI 2.23 µM | BT-549 5.06 µM | NCI/ADR-RES 4.05 µM

Cc1cc(O)nc2cc3oc4ccccc4c3cc12
inactive: PC-3 > 100 µM | U-251 17.1 µM | OVCAR-3 > 33.6 µM | SNB-19 > 50.6 µM | A549 7.64 µM | K562 30.9 µM | SK-MEL-28 > 100 µM | OVCAR-5 > 83.2 µM | NCI-H460 3.91 µM | SR 5.96 µM | HL-60 17.6 µM | DU-145 > 100 µM | IGROV-1 > 63.7 µM | MOLT-4 3.71 µM | KM12 70.1 µM | SNB-75 > 100 µM | MDA-N > 100 µM | LOX IMVI > 28.2 µM | BT-549 > 100 µM | NCI/ADR-RES > 100 µM

O=C(O)CCCc1ccc(N(CCCl)CCCl)cc1 [CHLORAMBUCIL]
inactive: PC-3 99.3 µM | U-251 42.8 µM | OVCAR-3 111 µM | SNB-19 96.2 µM | A549 61.7 µM | K562 107 µM | SK-MEL-28 106 µM | OVCAR-5 97.1 µM | NCI-H460 14.7 µM | SR 5.98 µM | HL-60 8.22 µM | DU-145 61.4 µM | IGROV-1 115 µM | MOLT-4 5.78 µM | KM12 143 µM | SNB-75 54 µM | MDA-N 117 µM | LOX IMVI 40.3 µM | BT-549 112 µM | NCI/ADR-RES 56.9 µM

Cc1ccc(C(=O)N/N=C(\N=N\c2cccc(Cl)c2)c2ccc(N(CCC#N)CCC#N)cc2C)cc1
inactive: PC-3 > 100 µM | U-251 > 100 µM | OVCAR-3 93.3 µM | SNB-19 > 100 µM | A549 > 100 µM | K562 > 100 µM | SK-MEL-28 > 100 µM | OVCAR-5 > 100 µM | NCI-H460 > 100 µM | SR > 100 µM | HL-60 56.9 µM | DU-145 > 100 µM | IGROV-1 > 100 µM | MOLT-4 41.5 µM | KM12 > 100 µM | SNB-75 75.9 µM | MDA-N > 100 µM | LOX IMVI > 100 µM | BT-549 > 100 µM | NCI/ADR-RES > 100 µM
